Changes are numbered by the printed parent chain. Like-named read-outs stand apart in the source and are kept apart here.
How the values were obtained:
[1] = molecular target: human alpha1A adrenergic receptor; experiment: Selective binding assay, competition with [125I]-HEAT on COS-7 membranes, α1A; conditions: Table I, 100 pM [125I]-HEAT
Description: The resulting plasmid was transfected into COS-7 cells by electroporation.
(§1) Binding reactions (total volume=200 ul) contained 50 mM Tris-HCl pH. […] Reactions are incubated at room temperature for one hour with shaking. Reactions were filtered onto Whatman GF/C glass fiber filters with a Brandel cell harvester. Filters were washed three times with ice cold buffer and bound radioactivity was determined.
as §1, with “These competition binding” for “Binding”, “contain” for “contained”, “determined. Binding data were analyzed and IC50s determined by an iterative curve fitting program.” for “determined.”

[2] = molecular target: T1, human alpha-1c adrenergic receptor, allele 2 (LCR) (Homo sapiens, UniProt P35348); experiment: biochemical
T1 sequence (P35348 1-466): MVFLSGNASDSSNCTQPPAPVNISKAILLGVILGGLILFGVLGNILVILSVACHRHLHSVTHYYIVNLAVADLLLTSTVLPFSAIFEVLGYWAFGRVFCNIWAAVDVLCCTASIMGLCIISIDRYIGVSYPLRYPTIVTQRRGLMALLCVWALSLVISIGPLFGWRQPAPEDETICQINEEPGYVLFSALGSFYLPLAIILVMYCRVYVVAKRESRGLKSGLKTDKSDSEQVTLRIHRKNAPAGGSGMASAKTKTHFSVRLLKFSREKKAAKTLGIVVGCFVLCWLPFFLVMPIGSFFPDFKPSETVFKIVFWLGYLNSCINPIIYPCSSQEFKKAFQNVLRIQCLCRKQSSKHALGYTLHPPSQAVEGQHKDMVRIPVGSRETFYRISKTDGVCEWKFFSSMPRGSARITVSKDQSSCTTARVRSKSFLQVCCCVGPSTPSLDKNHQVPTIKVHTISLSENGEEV
Description: (§2) To investigate the pharmacological profiles of the two allelic forms of the human alpha-1c adrenergic receptor we ligated the genomic exon 2 fragment of allele 2 to a cDNA clone of allele 1 at a common PvuII restriction site. The two allelic forms were transiently expressed in COS-7 cells using pcDNAI/NEO (Invitrogen) expression vector.

[3] = molecular target: T2, human alpha-1c adrenergic receptor, allele 1 (LRR) (Homo sapiens, UniProt P35348, C347R); experiment: biochemical
T2 sequence (P35348 1-466 C347R): T1 sequence (P35348 1-466) with C347R
Description: as §2

[4] = molecular target: human/rat alpha1B adrenergic receptor; experiment: Selective binding assay, competition with [125I]-HEAT on COS-7 membranes, α1B; design: species or system human/rat hybrid
Description: The partial human alpha1B adrenergic receptor cDNA was joined to the 3' end of the rat alpha1B adrenergic receptor cDNA at their common BssHII restriction endonuclease site. ID:25:
as §1, with “The complete coding region for the human/rat alpha1B adrenergic receptor was subcloned into the eukaryotic expression vector pcDNAI-neo (Invitrogen). The resulting plasmid was transfected into COS-7 cells by electroporation. […] Binding” for “Binding”
as §1, with “These competition binding” for “Binding”, “contain” for “contained”, “determined. Binding data were analyzed and IC50s determined by an iterative curve fitting program.” for “determined.”

[5] = molecular target: T3, human alpha1C adrenergic receptor (Homo sapiens, UniProt P35348, C347R); experiment: Selective binding assay, competition with [125I]-HEAT on COS-7 membranes, α1C; conditions: Table I, 100 pM [125I]-HEAT
T3 construct: expressed in transfected cells; host or cells: COS-7 cells (pcDNAI-neo, electroporation), membranes
T3 sequence (P35348 1-466 C347R): T1 sequence (P35348 1-466) with C347R
Description: as §1, with “The resulting plasmid was transfected into COS-7 cells by electroporation. […] Binding” for “Binding”, “were” for “are”
as §1, with “These competition binding” for “Binding”, “contain” for “contained”, “determined. Binding data were analyzed and IC50s determined by an iterative curve fitting program.” for “determined.”
as §1, with “These competition binding” for “Binding”, “contain” for “contained”, “determined. Binding data were analyzed and IC50s determined by an iterative curve fitting program.” for “determined.”

[6] = Table I, 100 pM [125I]-HEAT, COS-7 membranes

Row | Compound | IC50 [1] [nM] | IC50 [4, 6] [nM] | IC50 [5] [nM] | further results
1 | COc1ccccc1N1CCN(CCCNc2c(C)c(=O)n(C)c(=O)n2C)CC1 [5-methyl urapidil] | 42 | 270 | 3.5 | IC50 [2]: 4.3 nM; IC50 [3]: 3.1 nM
2 | COC(=O)C1=C(C)NC(C)=C(C(=O)OCCCN2CCC(c3ccccc3)(c3ccccc3)CC2)[C@H]1c1cccc([N+](=O)[O-])c1 [S(+) niguldipine] |  |  |  | IC50 [4]: 670 nM
3 | COc1cccc(OC)c1OCCNCC1COc2ccccc2O1 (centres unmarked) [WB4101] | 1 | 16 | 1 | IC50 ([2]; read-out: IC50 LCR, Table II, allele 2 (Cys at amino acid 347), COS-7, 125I-HEAT): 1 nM; IC50 [3]: 0.9 nM
4 | COc1cccc(OC)c1OCCNCC1CSc2ccccc2O1 (centres unmarked) [benoxathian] | 2.5 | 68 | 1.5 | 
5 | COc1cc2nc(N3CCN(C(=O)C4COc5ccccc5O4)CC3)nc(N)c2cc1OC (centres unmarked) [doxazosin] |  | 2 |  | 
6 | CC(COc1ccccc1)N(CCCl)Cc1ccccc1 (centres unmarked) [phenoxybenzamine] | 6.1 | 4.3 |  | 
7 | Cc1ccc(N(CC2=NCCN2)c2cccc(O)c2)cc1 [phentolamine] |  | 650 |  | 
8 | COc1cc2nc(N3CCN(C(=O)c4ccco4)CC3)nc(N)c2cc1OC [prazosin] |  |  |  | IC50 [4]: 2.4 nM
9 | COc1cc2nc(N3CCN(C(=O)C4CCCO4)CC3)nc(N)c2cc1OC (centres unmarked) [terazosin] |  | 5 |  | 
